Assay results published in patent US10723716B2, “Alpha-helix mimetics as modulators of Abeta self-assembly” (New York University, priority 2016, dated 2020).
Entries after “also recorded” stand apart in the source; their conditions may differ. Like-named read-outs stand apart in the source and are kept apart here.

Experiments:
[1] = test system: Aβ42 mediated toxicity in mouse neuroblastoma (N2a) cells; test: Aβ42 mediated toxicity in Neuro-2a cells (MTS cell viability); format: cell-based; conditions: for IC50: 5 μM Aβ42, N2a cells, read-out: IC50 (concentration required to inhibit 50% cell toxicity induced by 5 μM Aβ42); for cell viability, delayed addition: in % (unit assumed)
[2] = target: T1, Aβ42 (Homo sapiens, UniProt P05067); test: Seed-catalyzed kinetic assay, Aβ42; format: biochemical; conditions: equimolar ratio, preformed fibers (seeds)
T1 construct: Cleavage of APP results in several Aβ isoforms; The predominant species are Aβ42 and Aβ40; purchased Anaspec (Fremont, Calif., USA)
T1 sequence (P05067 672-713 limits assumed): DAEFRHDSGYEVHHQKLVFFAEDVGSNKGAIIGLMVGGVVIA
Description: Seeds of Aβ40/Aβ42 were prepared by incubating 200 μM of Aβ40/Aβ42 in phosphate buffer at room temperature. The samples were aged for 48 h and the formation of fibers was confirmed by TEM and ThT before storage at −20° C. until use. For the aggregation of Aβ40, 10% (based on the monomeric Aβ40, v/v) seeds were added along with ThT in phosphate buffer to the 96-well plate. The aggregation was initiated by the addition of monomeric Aβ40 followed by gentle mixing. The process was similar in the case of Aβ42 except that the seed concentration was 5% (based on the monomeric Aβ42, v/v).
The seeds were generated by aging 200 μM Aβ peptides for 48 h in phosphate buffer with occasional vortexing. The concentration of seeds was calculated based on the monomeric concentration of Aβ.

[3] = test system: IAPP mediated toxicity in rat INS-1 cells; test: IAPP mediated toxicity in INS-1 cells; format: cell-based; conditions: equimolar ratio
[4] = target: T2, Aβ12-28 (Homo sapiens, UniProt P05067); test: Circular dichroism (CD) spectroscopy of Aβ12-28; format: biochemical; conditions: Aβ12-28, 20% TFE, equimolar ratio
T2 construct: Aβ12-28, a well-characterized subdomain of Aβ42; purchased Anaspec (Fremont, Calif., USA)

[5] = target: T3, IAPP (Homo sapiens, UniProt P10997); test: ThT-based kinetic assay of IAPP aggregation; format: biochemical; conditions: for effect on IAPP fibrillation / amyloid formation (ThT): equimolar ratio (IAPP 10 μM, FIG. 25c, 26c, 27m)
T3 construct: purchased Anaspec (Fremont, Calif., USA)
T3 sequence (P10997 34-70 limits assumed): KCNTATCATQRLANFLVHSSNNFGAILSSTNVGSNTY
Description: (§1) Kinetic assays were conducted on a FlexStation 3 Multi-Mode Microplate reader from Molecular Devices (Sunnyvale, Calif., USA). Experiments were conducted in triplicate in a 96-well plate with a final volume of 200 μL per well. Every measurement was an average of 50 readings. The aggregation of an amyloidogenic peptide (Aβ40, Aβ42, or IAPP) was initiated by the addition of the peptide from a stock solution (in DMSO, 0.5-1 mM) to phosphate buffer. The final concentration of each peptide was different based on their aggregation. The stoichiometry of ThT dye for each peptide was 0.5:1 (ThT:peptide). Peptide aggregation was monitored by ThT fluorescence (λex=445 nm and λem=485 nm). The blank sample contained all the components of the peptide samples except the peptide. The sample data were processed by subtracting the fluorescence of the blank sample. The fluorescence intensity data was then normalized by setting the maximum value to 1.
(§2) Kinetic assays in the presence of the compounds of the invention were conducted under the same conditions. The small molecules were added from a stock solution (1 mM or 10 mM in DMSO) to keep the final concentration of DMSO less than 1.0% (v/v). Small molecules were added to the wells with ThT and buffer and mixed gently with a pipette before adding the peptide. To keep the conditions identical, an equal amount of DMSO was added to the wells with the peptide-only control reactions.
(§3) Kinetic profiles were processed using Origin (version 9.1). Kinetic curves were fit using the built-in sigmoidal fit. Each run was fit independently to extract the t50 (time required to reach 50% of the maximum fluorescence intensity). Error bars represent standard deviations from the mean of at least three independent experiments.

[6] = target: T3, IAPP; test: Lipid (LUV) catalyzed IAPP aggregation, ThT; format: biochemical; conditions: 10 μM IAPP, LUVs (DOPG:DOPC 1:1, 600 μM), equimolar ratio
Description: LUVs were prepared using an equimolar ratio of dioleoylphosphatidylglycerol (DOPG) and dioleoylphosphatidylcholine (DOPC). A solution of DOPG and DOPC (10 mg/mL each) in chloroform was mixed, dried over a stream of argon (g) for 1 h, and then lyophilized for 6 h (0.1×10^−3 bar). The solid was then rehydrated in 1 mL phosphate buffer for 30 min. The turbid solution (10 mg/mL, 1:1, DOPG:DOPC) was then extruded (21 times) through 100 nm diameter filters (Whatman, GE Healthcare, Marlborough, Mass., USA). The concentration of the phospholipid content in the extruded material was confirmed by calculating total phosphorus using total phosphate assay as described in Chen, P. S.; Toribara, T. Y.; Warner, H. Anal. Chem. 1956, 28, 1756-1758.
The effect of the α-helical mimetics was also assessed on the membrane associated α-helical conformation of IAPP.

[7] = target: T1, Aβ42; test: ThT-based kinetic assay of Aβ42 aggregation; format: biochemical; conditions: 5 μM Aβ42, equimolar, compound added at 2 h
[8] = target: T1, Aβ42; test: ThT-based kinetic assay of Aβ42 aggregation; format: biochemical; conditions: for effect on Aβ42 oligomerization/fibrillation (ThT): equimolar ratio
Description: The aggregation of Aβ42 was monitored using an established exogenous dye, Thioflavin T (ThT) that intercalates between the amyloid fibers along the perpendicular axis without affecting the kinetics of amyloid formation. (see Wolfe, L. S.; Calabrese, M. F.; Nath, A.; Blaho, D. V.; Miranker, A. D.; Xiong, Y. Proc. Natl. Acad. Sci. U.S.A. 2010, 107, 16863-16868; Levine, H. Protein Sci. 1993, 2, 404-410). A representative ThT-based kinetic assay results are depicted in FIG. 2. The oligomerization reaction of Aβ42 was initiated by diluting a 1 mM stock solution of Aβ42 (in DMSO) to a concentration of 20 μM in phosphate buffer (150 mM KCl, 50 mM NaPi, pH 7.4). Aβ42 fibrillation is a nucleation-dependent polymerization process and is characterized by a sigmoidal curve consisting of a lag phase, an elongation phase, and a plateau phase (FIG. 2a). The kinetic reaction was quantified by extracting t50, which is the time required to reach 50% of the maximum fluorescence that results from fibrillation. Under standard conditions the tso for Aβ42 fibrillation was 2.1±0.2 h (FIG. 2a and FIG. 8).
as §1, §2, §3
In the delayed addition experiments, where the oligopyridylamides were added at various time points during Aβ amyloid reaction, the conditions were same (as used for the assays where Aβ was preincubated with the oligopyridylamides). The Aβ oligomerization process was initiated by dissolving Aβ into buffer solution and then oligopyridylamides were added to this solution at indicated time points (depend on the assay) at an equimolar ratio.

[9] = mouse/rat NG108-15, N2a, 5 μM Aβ42 + seeds (10% v/v), 5 μM compound, without compound 31%, read-out: cell viability, seed-induced Aβ42 cytotoxicity

Compound | IC50 [1] | cell viability, delayed addition ([1]; ADH-41 added after 24 h of exposure to 5 μM Aβ42) | cell viability, delayed addition ([1]; ADH-41 added after 48 h of exposure to 5 μM Aβ42) | IC50 ([1]; mouse/rat NG108-15, N2a) | viability at 5 µM ([1]; mouse/rat NG108-15, N2a, 24 h, read-out: cell viability) | viability at 5 µM [1, 9] | viability at 5 µM ([1]; mouse/rat NG108-15, N2a, read-out: cell viability, delayed addition) | effect on seed-catalyzed Aβ42 fibrillation [2] | effect on IAPP mediated toxicity ([3]; rat INS-1 cells) | conformation of Aβ12-28 (far UV-CD) [4] | effect on aggregation of IAPP (ThT) ([5]; 20 μM IAPP, equimolar ratio (FIG. 3b, 3c, 13)) | effect on IAPP fibrillation / amyloid formation (ThT) [5] | rel. t50 of IAPP fibrillation [6] | effect on Aβ42 amyloid reaction on delayed addition [7] | change in ThT fluorescence intensity in control reaction ([8]; control reaction without Aβ42, matched conditions) | effect on Aβ42 oligomerization/fibrillation (ThT) [8] | ThT fluorescence intensity characteristic of Aβ42 oligomers ([8]; sub-stoichiometric ratios of 1:0.5 and 1:0.1 (Aβ42:ADH-41)) | cell viability ([3]; IAPP, INS-1 cells, IAPP alone 65±6%)
COC(=O)c1ccc(NC(=O)c2ccc(NC(=O)c3ccc([N+](=O)[O-])c(OCc4ccccc4)n3)c(OCCCN)n2)c(OCCCN)n1 [ADH-41] | 1400 ± 100 nM | 79±2 | 102±2 | 1450 nM | 99% | 63% | 93 ± 2% | completely arrested; also recorded: completely inhibits; also recorded: completely suppressed | did not have any effect; also recorded: no effect | strong α-helical conformation | agonist | did not have any effect; also recorded: no effect | 0.8±0.2 | effective in inhibiting | no change | completely inhibited; also recorded: effectively blocks; also recorded: decreased significantly | < 10% | –
COC(=O)c1ccc(NC(=O)c2ccc(NC(=O)c3ccc(NC(=O)c4ccc([N+](=O)[O-])c(OCC(C)C)n4)c(OCc4ccccc4)n3)c(OCC(=O)O)n2)c(OCC(=O)O)n1 [ADH-31] | – | – | – | 2500 ± 100 nM | – | 69% | – | completely suppressed | – | – | – | completely suppressed | – | effective in inhibiting | – | wholly suppressed | – | 98±4%
